Measured values published in US7999099B2, “Modified 5′-phosphonate azidothymidine—potential anti-viral preparations” (priority 2004, dated 2011).
Like-named read-outs stand apart in the source and are kept apart here.

Columns and labels:
GKV-4046 HIV-1 = test: Inhibition of HIV-1 replication in MT-4 cell culture (p24 accumulation, cell viability by MTT); format: cell-based, type 1 human immunodeficiency virus; conditions: MT-4 cells
Method: Inhibition of HIV replication was studied by cultivating pre-infected lymphoid cells of MT-4 cell line in the presence of the investigational compounds in the concentration of 0.001-100 µg per 1 ml of culture medium during one passage, i.e. 4 days.
Inhibition of HIV replication in a sensitive cell culture is assessed by the reduction of p24 virus-specific protein accumulation (according to immunoenzyme assay) as well as by the increase of cell viability in the presence of the drug as compared to the control on the 4th day of cultivation using bromide 3-(4,5-dimethylthiasol-2-yl)-2,5-diphenuyltetrasolium (MTT).
The effect of the investigational compounds of HIV-1 replication in MT-4 cell culture was studied using a known method.
The therapeutic index, or the index of selectivity (IS), is calculated as the ratio of 50% toxic concentration of a compound to its 50% effective dose (the results are presented in table 1).

[1] = Pharmacokinetics of generated AZT in dog blood after oral administration; format: in vivo
Method: A dog weighing 12 kg was orally given 250 mg of the investigational compound (mixed with curd). Blood samples (1 ml) were taken at defined intervals from the femoral vein. The samples were centrifuged (10 minutes at 2000 rpm) and the supernatant was separated. Oxetan (internal standard, 0.25 […]g) and methanol (0.75 ml) were added to aliquots of the supernatant (0.25 ml). The resulting mixture was centrifuged for 3 minutes at 5000 rpm. The supernatant was separated and evaporated in air flow at 40° C., water (1 ml) was added to the residue. Aliqutes (20[…]1) were analyzed by HPLC in Gynkotec chromatograph (Germany) using Ultrasphere ODC Beckman analytical column (USA). Eluent: 6% acetonitrile in 0.1% H3PO4 (pH 2.1) in the presence of 0.15% triethylamine; detection at […]max 265 nm at 30° C.

Compound: 5′-Hydroxymethylphosphonyl-3′-azido-3′-deoxythymidine [Ic]
- IS (index of selectivity, ratio of 50% toxic concentration to 50% effective dose) (GKV-4046 HIV-1): >1600

Compound: 5′-Methoxymethylphosphonyl-3′-azido-3′-deoxythymidine
- IS (index of selectivity, ratio of 50% toxic concentration to 50% effective dose) (GKV-4046 HIV-1): >100

Compound: 5′-Iodomethylphosphonyl-3′-azido-3′-deoxythymidine [Ib]
- IS (index of selectivity, ratio of 50% toxic concentration to 50% effective dose) (GKV-4046 HIV-1): >100

Compound: 5′-Chloromethylphosphonyl-3′-azido-3′-deoxythymidine [Ia]
- IS (index of selectivity, ratio of 50% toxic concentration to 50% effective dose) (GKV-4046 HIV-1): >3000

Compound: Cc1cn([C@H]2C[C@H](N=[N+]=[N-])[C@@H](CO)O2)c(=O)[nH]c1=O [AZT, 3′-azido-3′-deoxythymidine]
- half-life ([1]; in vivo, of azidothymidine, oral, amount equivalent to 250 mg of AZT): 5.2 h
- AUC ([1]; in vivo, of azidothymidine, oral, amount equivalent to 250 mg of AZT, read-out: AUC): 58800 ng·h/mL
- Cmax ([1]; in vivo, of azidothymidine, oral, amount equivalent to 250 mg of AZT, read-out: Cmax): 9770 ng/mL
- MRT ([1]; in vivo, of azidothymidine, oral, amount equivalent to 250 mg of AZT, read-out: MRT): 7.5 h
- Tmax ([1]; in vivo, of azidothymidine, oral, amount equivalent to 250 mg of AZT, read-out: Tmax): 2.5 h
- CL ([1]; of azidothymidine, oral, amount equivalent to 250 mg of AZT): 4.2 L/h

Compound: 5′-Aminocarbonylphosphonyl-3′-azido-3′-deoxythymidine [Ie]
- IS (index of selectivity, ratio of 50% toxic concentration to 50% effective dose) (GKV-4046 HIV-1): >3000

Compound: Cc1cn([C@H]2C[C@H](N=[N+]=[N-])[C@@H](CO[PH](=O)O)O2)c(=O)[nH]c1=O [Nikavir, 5′-hydrohenphosphonate of 3′-azido-2′,3′-dideoxythymidine]
- AUC ([1]; in vivo, po, 250 mg): 16600 ng·h/mL
- CL ([1]; in vivo, po, 250 mg): 15.0 L/h
- Cmax ([1]; in vivo, po, 250 mg): 1890 ng/mL
- MRT ([1]; in vivo, po, 250 mg): 10.4 h
- T1/2 ([1]; in vivo, po, 250 mg): 7.2 h
- Tmax ([1]; in vivo, po, 250 mg): 4.0 h
- IS (index of selectivity, ratio of 50% toxic concentration to 50% effective dose) (GKV-4046 HIV-1): 2015
